Among the data in US20230062119A1, “USE OF BIOMARKERS IN IDENTIFYING PATIENTS THAT WILL BE RESPONSIVE TO TREATMENT WITH A PRMT5 INHIBITOR” (Merck Sharp & Dohme LLC, priority 2019, published 2023) are EC50 values, retold here.

Where two headings read alike, the source gives them in different places.

The target of this experiment is T1, Full-length (FL)-PRMT5-MEP50 enzyme complex (Homo sapiens, UniProt O14744).
T1 construct: Full-length (FL)-PRMT5-MEP50 enzyme complex (recombinant proteins from baculovirus-transfected Sf21 cells: FL-PRMT5; MW=73837 kDa and FL-MEP50; MW=38614); made in house; host or cells: baculovirus-transfected Sf21 insect cells
As to the kind of experiment: PRMT5-MEP50 Enzyme Methylation Assay. Format: biochemical. The note with it: 1.0 nM PRMT5-MEP50, 75 nM biotinylated peptide, 15 μM SAM. How it is done: PRMT5-MEP50 biochemical assay is a direct measurement of the methylation activity of the enzyme complex on a short peptide substrate derived from the N-terminus of H4 histone. Methylation experiment is performed with recombinant PRMT5-MEP50 protein complex. The assessment of inhibitory effect of small molecules is measured by the effectiveness of the compounds to inhibit this reaction (EC50).
In this assay, the potency (EC50) of each compound was determined from a twenty-point (1:2 serial dilution; top compound concentration of 100000 nM) titration curve using the following outlined procedure. To each well of a white ProxiPlus 384 well-plate, 100 nL of compound (1% DMSO in final assay volume of 10 μL) was dispensed, followed by the addition of 8 μL of 1× assay buffer (50 mM Bicine pH 8.0, 1 mM DTT, 0.004% Tween20, 0.01% BSA) containing 1.25 nM of Full-length (FL)-PRMT5-MEP50 enzyme complex (recombinant proteins from baculovirus-transfected Sf21 cells: FL-PRMT5; MW=[…] and FL-MEP50; MW=38614) and 1 μL of 150 μM S-(5′-Adenosyl)-L-Methionine Chloride (SAM). Plates were sealed and placed in a 37° C. humidified chamber for a 60 minutes pre-incubation with compound. Subsequently, each reaction was initiated by the addition of 1 μL 1× assay buffer containing 750 nM biotinylated H4R3(Mel) peptide. The final reaction in each well of 10 μL consists of 1.0 nM PRMT5-MEP50, 75 nM biotinylated-peptide, and 15 μM SAM. Methylation reactions proceeded for 150 minutes in a sealed plate at 37° C. Reactions were immediately quenched by the addition of 1 μL of 5% formic acid. Plates were then frozen and shipped to SAMDI™ Tech Inc. to determine the percent conversion from H4R3(Mel) to H4R3(Me2). Dose-response curves were generated by plotting percent effect (% product conversion; Y-axis) vs. Log 10 compound concentrations (X-axis). EC50 values were determined by non-linear regression according to models for either sigmoidal (4 parameters) or biphasic (7 parameters) dose-response curves.

Setting [1] is: one EC50: 4 parameters single site sigmoidal model, EC50 1: first value of 7 parameters biphasic model, read-out: Enzyme Methylation Assay (EC50 or EC50 1).
Setting [2] is: second EC50 of 7 parameters biphasic model, read-out: Enzyme Methylation Assay (EC50 2).

T1 sequence (O14744 whole entry): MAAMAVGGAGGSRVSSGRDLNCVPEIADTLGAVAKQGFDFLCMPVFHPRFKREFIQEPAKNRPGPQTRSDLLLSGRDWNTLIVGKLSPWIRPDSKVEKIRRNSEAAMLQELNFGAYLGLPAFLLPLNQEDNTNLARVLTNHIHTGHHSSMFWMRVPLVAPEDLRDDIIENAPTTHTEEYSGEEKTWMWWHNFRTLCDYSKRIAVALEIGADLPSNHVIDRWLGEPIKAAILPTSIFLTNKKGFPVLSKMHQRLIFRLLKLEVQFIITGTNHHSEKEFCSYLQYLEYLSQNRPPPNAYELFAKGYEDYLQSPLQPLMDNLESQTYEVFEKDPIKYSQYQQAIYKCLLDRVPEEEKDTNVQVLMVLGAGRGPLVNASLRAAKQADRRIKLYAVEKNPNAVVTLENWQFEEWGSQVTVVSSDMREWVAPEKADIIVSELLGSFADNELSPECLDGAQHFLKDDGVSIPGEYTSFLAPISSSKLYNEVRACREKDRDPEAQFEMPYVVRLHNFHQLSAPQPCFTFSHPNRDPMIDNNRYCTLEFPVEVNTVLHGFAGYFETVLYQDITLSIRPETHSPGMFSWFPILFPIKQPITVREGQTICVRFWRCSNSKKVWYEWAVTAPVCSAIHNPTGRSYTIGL
T1 sequence (Q9BQA1 whole entry partner): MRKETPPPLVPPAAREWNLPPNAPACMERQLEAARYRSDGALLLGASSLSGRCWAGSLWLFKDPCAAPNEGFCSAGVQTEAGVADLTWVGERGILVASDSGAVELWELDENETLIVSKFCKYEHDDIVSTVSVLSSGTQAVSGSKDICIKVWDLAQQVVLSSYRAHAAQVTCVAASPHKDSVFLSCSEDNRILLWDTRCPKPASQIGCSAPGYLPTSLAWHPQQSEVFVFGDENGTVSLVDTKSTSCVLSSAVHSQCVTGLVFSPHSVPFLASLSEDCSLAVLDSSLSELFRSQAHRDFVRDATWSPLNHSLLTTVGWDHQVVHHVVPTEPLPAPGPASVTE

In the case of `CNc1ncnc2c1ccn2[C@@H]1O[C@@H]2[C@H](Cc3ccc4cc(Br)c(N)nc4c3)CC[C@]2(O)[C@H]1O` [Example 92, (2R,3R,3aS,6S,6aR)-6-((2-amino-3-bromoquinolin-7-yl)methyl)-2-(4-(methylamino)-7H-pyrrolo[2,3-d]pyrimidin-7-yl)hexahydro-3aH-cyclopenta[b]furan-3,3a-diol], the EC50 under setting [1] stood at 0.5 nM. For `Nc1nc2cc(C[C@@H]3CC[C@@]4(O)[C@@H]3O[C@@H](n3ccc5c(C6CC6)ncnc53)[C@@H]4O)ccc2cc1Br` [Example 87, (2R,3R,3aS,6S,6aR)-6-((2-amino-3-bromoquinolin-7-yl)methyl)-2-(4-cyclopropyl-7H-pyrrolo[2,3-d]pyrimidin-7-yl)hexahydro-3aH-cyclopenta[b]furan-3,3a-diol], the EC50 under setting [1] came out at 0.5 nM. With `C[C@]1(COc2ccc3cccnc3c2)O[C@@H](n2ccc3c(N)ncnc32)[C@H](O)[C@@H]1O` [Example 98, (2R,3S,4R,5R)-5-(4-amino-7H-pyrrolo[2,3-d]pyrimidin-7-yl)-2-methyl-2-((quinolin-7-yloxy)methyl)tetrahydrofuran-3,4-diol], the EC50 under setting [1] worked out at 3.4 nM and the EC50 under setting [2] is 2570 nM. With `Nc1nc2cc(O[C@H]3CC[C@@]4(O)[C@@H]3O[C@@H](n3ccc5c(N)ncnc53)[C@@H]4O)ccc2cc1Cl` [Example 72, (2R,3R,3aS,6S,6aR)-6-((2-amino-3-chloroquinolin-7-yl)oxy)-2-(4-amino-7H-pyrrolo[2,3-d]pyrimidin-7-yl)hexahydro-3aH-cyclopenta[b]furan-3,3a-diol], the EC50 under setting [1] was found to be 0.9 nM. Consider `Nc1nc2cc(O[C@H]3CC[C@@]4(O)[C@@H]3O[C@@H](n3cc(F)c5c(N)ncnc53)[C@@H]4O)ccc2cc1Br` [Example 56, (2R,3R,3aS,6S,6aR)-6-((2-amino-3-bromoquinolin-7-yl)oxy)-2-(4-amino-5-fluoro-7H-pyrrolo[2,3-d]pyrimidin-7-yl)hexahydro-3aH-cyclopenta[b]furan-3,3a-diol], for which, under setting [1], the EC50 turned out to be 0.2 nM.

In the case of `Cc1ncnc2c1ccn2[C@@H]1C[C@@H]2[C@H](Cc3ccc4cc(Br)c(N)nc4c3)CC[C@]2(O)[C@H]1O` [Example 19, (1S,2R,3aR,4S,6aR)-4-((2-amino-3-bromoquinolin-7-yl)methyl)-2-(4-methyl-7H-pyrrolo[2,3-d]pyrimidin-7-yl)hexahydropentalene-1,6a(1H)-diol], the EC50 under setting [1] was found to be 0.4 nM.

As to `C[C@@]1(O)[C@@H](COc2ccc3cccnc3c2)O[C@@H](n2ccc3c(N)ncnc32)[C@@H]1O` [Example 99, (2R,3S,4R,5R)-5-(4-amino-7H-pyrrolo[2,3-d]pyrimidin-7-yl)-3-methyl-2-((quinolin-7-yloxy)methyl)tetrahydrofuran-3,4-diol], the concentration giving a half-maximal response (EC50) turned out to be 1.7 nM under setting [1] and 1880 nM under setting [2]. On to `C[C@]12O[C@@H](n3ccc4c(N)ncnc43)[C@H](O)[C@@]1(O)CC[C@H]2Cc1ccc2cc(F)c(N)nc2c1` [Example 121, (2R,3R,3aS,6S,6aR)-6-((2-amino-3-fluoroquinolin-7-yl)methyl)-2-(4-amino-7H-pyrrolo[2,3-d]pyrimidin-7-yl)-6a-methylhexahydro-3aH-cyclopenta[b]furan-3,3a-diol], for which the concentration for a half-maximal effect (EC50) under setting [1] worked out at 0.4 nM. With `Nc1nc2cc(O[C@H]3CC[C@@]4(O)[C@@H]3O[C@@H](n3ccc5c(CO)ncnc53)[C@@H]4O)ccc2cc1Br` [Example 77, (2R,3R,3aS,6S,6aR)-6-[(2-amino-3-bromoquinolin-7-yl)oxy]-2-[4-(hydroxymethyl)-7H-pyrrolo[2,3-d]pyrimidin-7-yl]hexahydro-3aH-cyclopenta[b]furan-3,3a-diol], the concentration giving a half-maximal response (EC50) under setting [1] came out at 2 nM and the half-maximal effective concentration (EC50) under setting [2] came to 243 nM. `Nc1nc2c(F)c(C[C@@H]3CC[C@@]4(O)[C@@H]3O[C@@H](n3ccc5c(N)ncnc53)[C@@H]4O)ccc2cc1Cl` [Example 26, (2R,3R,3aS,6S,6aR)-6-((2-amino-3-chloro-8-fluoroquinolin-7-yl)methyl)-2-(4-amino-7H-pyrrolo[2,3-d]pyrimidin-7-yl)hexahydro-3aH-cyclopenta[b]furan-3,3a-diol]: the EC50 under setting [1] is 1.1 nM.

What is called EC50 is the concentration needed to bring the measured effect to its halfway point.
